Results as given in US8129532B2, “Amino(oligo)thiophene dyes, preparation thereof, and optical methods of use” (The University of Connecticut, priority 2007, dated 2012).
Where “and” joins values, the source holds several entries; their conditions need not be identical. Equal values may be shown once. Each block holds one molecule with its values, some of them ahead of it.

Tests used:
membrane potential = settings: cited from earlier work
[1] = One-photon absorption and emission spectra in multilamellar lipid vesicles, water and ethanol; type: physicochemical; settings: one photon; soybean multi-lamellar lipid vesicles
Excerpt: […] The column indicating relative signal change for one-photon fluorescence also lists the excitation light source used and the lower bounds of the long-pass emission detected.
Absorption and emission spectra were obtained for a series of dyes with different acceptors: pyridinium (PY-1261), quinolinium (PY-212), and acridinium (PY-2240).

[2] = One-photon fluorescence relative signal change per 100 mV; settings: excitation / long-pass emission (nm) given
Excerpt: The left-most data columns of Table 1 are the absorption and emission maxima for one photon fluorescence in soybean multi-lamellar lipid vesicles used to mimic the membrane environment. The column indicating relative signal change for one-photon fluorescence also lists the excitation light source used and the lower bounds of the long-pass emission detected.

neuroblastoma cells = test: SHG and 2PF imaging of stained neuroblastoma cells, 1064 nm fiber laser; type: cell-based, mouse; settings: 1064 nm excitation
Excerpt: For full details of our non-linear imaging microscope, we refer the reader to previously published descriptions. A. C. Millard, P. J. Campagnola, W. Mohler, A. Lewis, and L. M. Loew, “Second Harmonic Imaging Microscopy,” Meth. Enzymol. 361, 47-69 (2003); Millard, A. C., L. Jin, and L. M. Loew, “Second Harmonic Generation Imaging Microscopy with a High Power Ultrafast Fiber Laser,”Commercial and Biomedical Applications of Ultrafast Lasers. 5714-5716, 92-98 (2005); A. C. Millard, L. Jin, M.-D. Wei, J. P. Wuskell, A. Lewis, and L. M. Loew, “Sensitivity of Second Harmonic Generation from Styryl Dyes to Transmembrane Potential,” Biophys. J. 86, 1169-1176 (2004). Our current microscope combines a Fluoview (Olympus) scan-head and an Axiovert (Zeiss) inverted microscope constructed for multiple imaging methodologies including wide-field, one-photon excitation fluorescence imaging, as well as SHG and 2PF imaging. Our laser sources include a Mira (Coherent) Ti:sapphire laser and a Femtopower (Fianium) fiber laser operating at 1064 nm. […] Fluorescence is imaged (for linear imaging) or collected (for non-linear imaging) back through the excitation objective, while SHG is collected in the forward, transmitted light direction by a condenser, either 0.8 NA or 0.55 NA (Zeiss). […]

SMILES: CCN(CC)c1ccc(/C=C/C=C/C=C/c2cc[n+](CCC[N+](CC)(CC)CC)cc2)cc1.[Br-].[Br-] [FM4-64]
SHG sensitivity to membrane potential (membrane potential; literature): < 10 % per 100 mV and 7.5-10 % per 100 mV

1PF Abs. Max [1]: 536 nm | 1PF Em. Max [1]: 588 nm
SMILES: CCCCN(CCCC)c1ccc(/C=C/c2cc[n+](CCC[N+](CC)(CC)CC)cc2)s1 [PY-1284]
1PF Change (ΔF/F-100 mv) [2]: 1.5E−002; 555/>610 ΔF/F-100 mv | 2PF and SHG image signal strength (neuroblastoma cells): weak

SMILES: CCCCN(CCCC)c1ccc2cc(/C=C/c3cc[n+](CCCS(=O)(=O)[O-])cc3)ccc2c1 [di-4-ANEPPS]
SHG Kinetics (exponential time constant) (membrane potential; literature (Millard 2005)): 70.6 ms
